Test [1] deals with T1, HusA (Porphyromonas gingivalis, UniProt Q7MSY3).
T1 sequence (Q7MSY3 24-218): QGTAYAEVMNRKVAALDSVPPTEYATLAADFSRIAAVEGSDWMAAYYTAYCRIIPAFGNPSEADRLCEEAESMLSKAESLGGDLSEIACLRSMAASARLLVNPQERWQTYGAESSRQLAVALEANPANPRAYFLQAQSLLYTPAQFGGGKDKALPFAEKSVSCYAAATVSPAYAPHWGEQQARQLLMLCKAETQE
Put plainly: Tryptophan fluorescence quenching assay, HusA wild-type. The conditions noted are these: HusA wild-type 1 µM, fit to 1:1 binding model; read-out: Kd. Type of test: binding. The protocol: The quenching of intrinsic tryptophan fluorescence of HusA upon porphyrin additions was measured using a Carey Eclipse Fluorescence Spectrophotometer (Agilent) set to a photo multiplier effect (PME) of 850. A 5-mm path length quartz cuvette was used and all spectra were acquired at room temperature. Excitation was set to 295 nm and emission was measured from 300 nm to 500 nm using excitation/emission slit widths of 5 nm. Binding assays were performed at a protein concentration of 1 μM HusA in standard buffer at a working volume of 0.5 mL. […] The fluorescence quenching of HusA by PPIX was investigated in a similar manner with the following difference: the fluorescence intensities of ten 1 μM HusA samples were measured each with increasing amounts of PPIX after a 2-h incubation period to allow equilibrium to be reached. See Supplementary Methods for correction for inner filter effect and curve fitting. […]
Correction of inner filter effect and curve fitting in tryptophan fluorescence quenching assays The concentration of NATA was chosen such that the raw fluorescence intensity was similar to the […] concentrations of HusA and mutants used. The same molarity titrants of porphyrin were titrated into NATA as were added into HusA in the control reactions. Fluorescence intensity was scaled with respect to the starting florescence and corrected for the inner filter effect. Fluorescence at 335 nm was used to fit binding curves.
The correction method is based on Fonin AV., et al.26, noting that a Cary Eclipse spectrofluorimeter […]
performed to measure the contribution to the decrease in fluorescence due to the inner filter effect and this effect was scaled to the starting fluorescence values as fractional changes. The measured fluorescence at each titration point for each of the porphyrin titrations into protein was then adjusted for this contribution. Fluorescence at 335 nm was used to fit binding curves. Association constant, Ka, was fitted using the following equation in Origin, assuming a single binding site. A dissociation constant, Kd, was calculated by taking the inverse of the Ka.
Xobs = XA×f A+XAB×f AB (1) where XA is the corrected fluorescence, fA=1-fAB, fAB=x/(Bt), x=(-b-sqrt(b2-4×c))/2, b=-(1/Ka+At+Bt), c=Bt×At, Bt=total concentration of protein, At=total concentration of ligand.
To aid comparison of the different titrations, the corrected fluorescence was scaled to the starting fluorescence in the absence of porphyrins (i.e. all fluorescence curves have a starting value of one

For test [2], the target named is T1, HusA. In words: UV-visible absorption spectral analysis of ligand interaction with HusA. Type of test: binding. The protocol:
All absorbance spectra were recorded at room temperature using 10-mm quartz cuvettes on a Shimadzu UV-1601 or Jasco V-630 spectrophotometer. Mixtures of HusA/mutant with porphyrins were prepared by dissolving porphyrin stocks in standard buffer to a final concentration of 5–20 μM with a 1–1.5 molar ratio of protein to porphyrin, as specified in the relevant figure legends. PPIX:HusA mixtures were prepared by incremental addition of 2–4 μM HusA with a 10–15 min wait after each addition of HusA.

The next test deals with P. gingivalis W83. In words: Growth of starved W83 with titration of dipyridyl. Type of test: cell-based, Porphyromonas gingivalis. From the text:
This manuscript further describes HusA protein. Although very sophisticated methods were used and interesting results were gained, this study requires more work to be convincing. The conclusions drawn (mainly regarding the possibility that porphyrin-metronidazole conjugate could be used to treat P. gingivalis infection) are very strong but not supported enough by the data presented.
- How is this possible that P. gingivalis grows in the culture medium lacking iron (dipyridyl added) and supplemented with porphyrins without metal inside the porphyrin ring (Fig 1, panel A)? What serves as an iron source allowing P. gingivalis to grow? Were the bacteria starved before these experiments? Please explain this more carefully.
Response: We agree with the reviewer that P. gingivalis requires both iron and porphyrin to survive. Iron is naturally present in the complex medium, enriched tryptic soy broth (eTSB), used in this study. The iron concentration of TSB medium has been previously determined at 0.74 µg/mL by atomic absorption spectrophotometry (de Oliverira Moreira L., et al., 2003 AEM) which requires approximately 500 µM dipyridyl to chelate all available iron in the medium (Scharfman AH 1996 I&I). The dipyridyl used in this study is 100 µM and the remaining iron provided by the TSB medium is sufficient to support P. gingivalis growth. […]

Test [3] has as its system P. gingivalis wild-type W83. Put plainly: Checkerboard / broth micro-dilution assay (MIC, MBC), wild-type W83. Type of test: cell-based, Porphyromonas gingivalis. The conditions noted are these: Porphyromonas gingivalis; planktonic W83, 24 h, anaerobic; read-out: minimal inhibitory concentration. The source says:
Fig. 5 A prototype DPIX-conjugated antibiotic binds HusA and inhibits P. gingivalis. a The chemical structure of the deuteroporphyrin-lysine-metronidazole adduct, P8. b NMR signal intensity changes (black) and ^1H^N CSPs (red/green) for HusA upon addition of P8 (measured from ^15N-HSQC spectra shown in Supplementary Figure 21). c In silico docking of P8 to the energy minimized structure of HusA (conformer set 1), with residues experiencing NMR signal loss (orange) or CSPs (red/green) mapped to the structure (colouring as described in Fig. 2d). d Scaled and corrected fluorescence at 335 nm during titration of 1 μM of HusA with increasing concentrations of P8, haemin or DPIX. e Comparison of P8 inhibitory effect towards P. gingivalis wild-type W83 and husA mutants using checkerboard analysis. Serial dilutions of antibiotics (horizontal axis) were applied to a 96-well plate with different P. gingivalis strains (vertical axis). Serial dilutions of DPIX were also supplemented into wild-type W83 group to evaluate the competitive effect against P8. Absorption at OD600 of each well was recorded after 24 h of incubation. The OD600 of each strain grown in the absence of antibiotics was defined as 100% growth, which was applied to normalise the reading collected from other wells. The normalised percentage of each well was plotted in the checkerboard. Metronidazole alone and in combination with PPIX or DPIX was applied as control. f Intracellular killing assay of P8 antibiotics. Gingival H413 epithelial cells were infected by P. gingivalis W83 and then treated with P8 at various concentrations. Recovered bacteria were determined by CFU count. Metronidazole and DMSO were used as control. Three independent experiments with triplicate assays were conducted. […]

Test [4] deals with P. gingivalis wild-type W83. In words: Checkerboard analysis of metronidazole with PPIX or DPIX, iron-replete and -limited. Type of test: cell-based, Porphyromonas gingivalis. To be noted: iron replete or iron-limited conditions. The protocol: Supplementary Figure 24. Comparison of metronidazole inhibitory effect towards P. gingivalis wild-type W83 in the presence of PPIX or DPIX under iron-replete and -limited conditions by checkerboard analysis. Serial dilutions of antibiotics along the horizontal axis were applied to a 96-well plate with P. gingivalis W83. Two pre-determined concentrations of PPIX or DPIX were supplemented to evaluate the synergistic effect between metronidazole and porphyrins. Dipyridyl (at 100 µM) was also applied to explore the potential effect under iron-replete and iron-depleted conditions. Absorption at OD600 of each well was recorded after 24 h of incubation. The OD600 of each strain grown in the absence of antibiotics was defined as 100% growth which was applied to normalise the reading collected from other wells. The normalised percentage of each well was plotted […]
(1 picture or pasted object on this page, not shown here)

`CC1=Cc2cc3[n-]c(cc4[n-]c(cc5nc(cc1n2)C=C5C)c(C)c4CCC(=O)[O-])c(CCC(=O)[O-])c3C.[Fe+2].[H+].[H+]` [Fe(III)DPIX, iron(III) deuteroporphyrin IX]: the Kd on HusA [1] was 220 ± 50 nM.
`C=CC1=C(C)/C(=C/C2=NC(=C\c3[nH]c(/C=C4\NC(=O)C(C)=C4C=C)c(C)c3CCC(=O)O)/C(CCC(=O)O)=C2C)NC1=O` [biliverdin]: at HusA [2], the “interaction with HusA by UV-visible absorption” value is “no interaction”.
Turning to `c1ccc(-c2ccccn2)nc1` [dipyridyl, 2,2’-dipyridyl], in the test with P. gingivalis W83, the “dipyridyl concentration at which growth recovery after starvation was observed” value is reported as “up to 200 µM”. The “dipyridyl concentration at which P. gingivalis failed to recover” value in the test with P. gingivalis W83 (W83 after starvation) is on record as no less than 500 µM.
Regarding `Cc1ncc([N+](=O)[O-])n1CCO` [Metronidazole, metronidazole], the MIC in test [3] lay in the range of 5 to 10 µM.
Take `C=CC1=C(C)/C(=C/c2[nH]c(Cc3[nH]c(/C=C4\NC(=O)C(C)=C4C=C)c(C)c3CCC(=O)O)c(CCC(=O)O)c2C)NC1=O` [bilirubin]: on HusA [2], the “interaction with HusA by UV-visible absorption” value is recorded as “no interaction”.
On to `C=CC1=C(C)c2cc3[nH]c(cc4nc(cc5[nH]c(cc1n2)c(C)c5CCC(=O)O)C(CCC(=O)O)=C4C)c(C)c3C=C` [PPIX, protoporphyrin-IX], for which, at HusA [1], the Kd came to 1900 ± 600 nM. The “sensitisation of P. gingivalis cells towards metronidazole” value in test [4] is listed as “Neither PPIX nor DPIX sensitised”.

As a reminder, the Kd is the concentration at which binding is half-saturated.

Source of the values: article PMC6173696, “Structural properties of a haemophore facilitate targeted elimination of the pathogen Porphyromonas gingivalis” (Nature Communications, 2018).
